Data: US20100234220A1, “Oxooxetanes as Fungicidal Agents” (Bayer CropScience AG, priority 2006, published 2010)

Legend:
Venturia inaequalis = assay: Venturia test (apple)/protective; format: in vivo; conditions: protective, 100 ppm, evaluation 10 days after inoculation
Protocol: Venturia Test (Apple)/Protective [table] To produce a suitable preparation of active compound, 1 part by weight of active compound is mixed with the stated amounts of solvents and emulsifier, and the concentrate is diluted with water to the desired concentration. To test for protective activity, young plants are sprayed with the preparation of active compound at the stated application rate. After the spray coating has dried on, the plants are inoculated with an aqueous conidia suspension of the apple scab pathogen Venturia inaequalis and then remain in an incubation cabin at about 20° C. and 100% relative atmospheric humidity for 1 day. The plants are then placed in a greenhouse at about 21° C. and a relative atmospheric humidity of about 90%.

[1] = logP determination by HPLC (gradient method, 0.08% HCO2H)

Compound	efficacy (Venturia inaequalis)	chromatographic logP [1]
CC[C@H](C)[C@@H]1C(=O)O[C@H]1C(=O)NCc1cc(OC)cc(OC)c1 [Example 1, (3S)-(1S-Methylpropyl)-(2R)-(3,5-dimethoxybenzylaminocarbonyl)-4-oxooxetane]	≥ 70%	–
CC[C@H](C)[C@@H]1C(=O)O[C@H]1C(=O)NCc1ccc(Cl)cc1 [Example 2, (2R,3S)—N-(4-chlorobenzyl)-3-[(1S)-1-methylpropyl]-4-oxooxetane-2-carboxamide]	–	3.04
CC[C@H](C)[C@@H]1C(=O)O[C@H]1C(=O)Nc1cc(OC)c(OC)c(OC)c1 [Example 3, (2R,3S)-3-[(1S)-1-methylpropyl]-4-oxo-N-(3,4,5-trimethoxyphenyl)oxetane-2-carboxamide]	–	2.5
